Data on two molecules can be found in US10894817B2, “Fatty acid modified urocortin-2 analogs for the treatment of diabetes and chronic kidney disease” (priority 2016, dated 2021).

Molecules are shown by their SMILES. Where “and” joins values, the source holds several entries; their conditions need not be identical. Equal values may be shown once. Read-outs that look alike come from different tables or passages of the source. Starred links: 1 amine or outer side, 2 acyl side, 3 side chain; linkers in the order of their positions; H or OH if unused. Non-standard residues stand in square brackets, D forms with d. Residues, ends and D or L forms follow the SMILES beside them. Groups on a side chain read outwards from the residue. *: point of attachment. C20 diacid = O=C(O)CCCCCCCCCCCCCCCCCCC(=O)*; γGlu = O=C(O)[C@H](CCC(=O)[*:2])N[*:1]; NMeI = CC[C@H](C)[C@H](NC)C(=O)O; AEEA = NCCOCCOCC(=O)O

The subject of one data set is remnant kidney mice. The data set is described as follows: Mouse remnant kidney model of hypertensive nephropathy (Example 2, 9 weeks). Conditions: all groups. Type of data set: in vivo. The procedure:
A mouse remnant kidney model (“remnant”) involving surgical reduction of ¾ of the entire renal mass is used as a preclinical model of hypertensive renal disease (Kidney Int. 64(1):350-5, (2003)).
Surgical reduction of renal mass (N=40 mice) or sham surgery is performed by Taconic, Inc. in male 129S6 mice at 8-9 weeks of age (obtained by Taconic, Inc.). Randomization into 5 equivalent groups of 8 remnant kidney mice is done at 15 weeks post-surgery by urine albumin to creatinine ratio (ACR) and body weight.
Study duration is 9 weeks. After 2 weeks of dosing, a necropsy is done on all groups except the 144 nmol/kg group of Example 2 which continues to be monitored for ACR for another 7 weeks to determine the durability of the effects of the compound of Example 2 on urine ACR. […]
Body weight is determined at baseline and at termination with a Metler Toledo Balance. […] Serum is analyzed for BUN and creatinine on a Roche Hitachi Modular Analytics P analyzer with reagents from Roche. […]
Urine albumin and creatinine are determined on a Roche Hitachi Modular Analytics P analyzer. Urine creatinine is determined with the Creatinine Plus reagent by Roche. […]
All data are analyzed with JMP v.8.0 software (SAS Institute). […] All other data were evaluated by ANOVA with log transformed data if the data were skewed and a Students unpaired t test. […]

The conditions of data set [1]: rat, in vivo, sc, 150 nmol/kg.
Data set [2] can be described thus: Pharmacokinetics, single intravenous dose, monkeys. Conditions: for clearance: in vivo, CL.
Description: (§1) Plasma concentrations of compounds were determined by LC/MS methods. Each method measured the intact compound; peptide plus linked time extension. […] Two distinct layers were formed upon centrifugation with the compound and the IS located in the supernatant layer. An aliquot of the supernatant (80 μl) was transferred to a Thermo Protein Precipitation Plate with water (150 μl) and formic acid (25 μl) followed by mixing. A final 31% acetonitrile in 10% formic acid sample (10 μl) was loaded onto a Supelco Analytical Discovery BIO Wide Pore C5-3 column (5 cm×1 mm, 3 μm). The column effluent was directed into a Thermo Q-Exactive mass spectrometer for detection and quantitation.
(§2) Male Cynomolgus monkeys were administered a single subcutaneous dose or intravenous dose (96.4 nmol/kg) of a compound described herein in 20 mM Tris-HCl Buffer (pH 7) at a volume of 1 mL/kg. Blood was collected from each animal at 2, 6, 24, 48, 72, 96, 168, 240, 336, 408, and 504 hours postdose for pharmacokinetic characterization.
The conditions of data set [3]: cynomolgus monkey, in vivo, iv, 96.4 nmol/kg, T1/2.
Description: as §1, §2
The test system of data set [4] is UniNx db/db AAV renin mice. The data set is described as follows: Uninephrectomized db/db AAV renin model of diabetic nephropathy. The format is in vivo. As for the experimental part:
The uninephrectomized db/db adeno-associated viral (AAV) renin model represents a progressive model of diabetic kidney disease with hypertension driven by an AAV renin transgene (Am J Physiol Regul Integr Comp Physiol. 309(5):R467-74, (2015)).
The uninephrectomy (UniNx) surgery on female db/db mice on a C57BLKS/J background (obtained from Harlan Laboratories) is performed by Harlan Laboratories at 4 weeks of age with removal of the right kidney to accelerate the diabetic kidney disease. Animals are received at 5 weeks of age and housed in micro-isolator cages at 3 mice per cage and are on a 12 hour light/dark cycle. All db/db mice are fed ad libitum with Purina special diet 5008 and allowed free access to autoclaved water.
Mice are acclimated for 7 weeks prior to administration of AAV Renin (5×10^9 GC) intravenously by the retro-orbital sinus to induce persistent hypertension. Randomization by urine albumin to creatinine ratio (ACR), blood glucose and body weight is done at 15 weeks of age (a point at which renal disease and pathology are established in this model based on observations) into 2 groups of 12 saline control mice and 33 mice to receive Lisinopril treatment.
Dosing with Lisinopril (30 mg/L) begins at 16 weeks of age. After 2 weeks of Lisinopril treatment, the 33 mice are randomized by urine ACR, blood glucose and body weight into 4 groups (one group of 9 mice and 3 groups of 8 mice).
In the 4 groups of UniNx db/db AAV renin mice receiving Lisinopril treatment, either 0.9% physiological saline for injection (“saline control” N=9) or different dose levels of Example 4 (7.2, 24 or 72 nmol/kg, N=8 per dose level) are dosed at 0.2 mL s.c. per injection beginning at 18 weeks of age and continued 3 times weekly for 12 weeks. Albumin and creatinine are measured in urine with a Roche Hitachi Modular Analytics P analyzer with Roche reagents for detection of albumin and creatinine.
For all the groups, the parameters measured are body weight, kidney weight, heart weight, urine albumin to creatinine ratio, serum creatinine and renal pathology scores for mesangial matrix expansion, glomerular fibrosis, tubular regeneration, interstitial inflammation and interstitial fibrosis.
At 15 and 27 weeks of age, blood (30 to 50 uL) from all the UniNx db/db AAV Renin mice is obtained from the tail vein and dropped onto a Precision PCx blood glucose sensor electrode strip (Abbott Laboratories) for blood glucose determination with a MediSense Precision PCx glucometer (Abbott Laboratories). Blood glucose data is used to block the UniNx db/db mice into equivalent groups. Body weight is determined at baseline and at termination with a Metler Toledo Balance. The heart and kidney are removed at necropsy and weighed on a Metler Toledo Balance. Blood (500 ul) is collected from the retro-orbital sinus at termination under isoflurane anesthesia. The clotted blood is centrifuged to obtain serum. Serum is analyzed for creatinine on a Roche Hitachi Modular Analytics P analyzer with reagents from Roche.
Urine is collected by a spot collection method to collect urine over a 2-4 hr time period. An individual mouse is placed on top of a 96 well polypropylene microplate and then covered by a Plexiglas chamber with holes for breathing but no access to food or water. At the end of the time period, the urine is removed from the plate with a micropipette and placed on ice, centrifuged and subjected to albumin and creatinine analysis. Urine albumin, creatinine and glucose are determined on a Roche Hitachi Modular Analytics P analyzer. Urine creatinine is determined with the Creatinine Plus reagent by Roche. For urine albumin, the Roche Microalbumin assay is modified to adapt the calibration curve for measuring urine albumin in mice. Albuminuria was defined as albumin to creatinine ratio (ACR).
Kidneys are removed at study termination, fixed in formalin and processed for paraffin sectioning according to standard methodology. […]

[5] abbreviates: male Cynomolgus monkeys, single 96.4 nmol/kg i.v., individual animal.
The mark [6] stands for this setting: male, cynomolgus monkey, plasma, iv, 96.4 nmol/kg.

For orientation: CL/F means the apparent clearance, not corrected for the fraction that reaches the circulation. What is called half-life is how long it takes for the measured level to halve. A higher half-life goes with slow decline. In general, clearance refers to the rate of elimination divided by the concentration. As usually defined, the AUC(0-inf) is the area under the concentration-time curve extrapolated to infinity. A higher AUC(0-inf) goes with high exposure. `CC[C@H](C)[C@H](NC(C)=O)C(=O)N[C@H](C(=O)N[C@@H](CC(C)C)C(=O)N[C@@H](CO)C(=O)N[C@@H](CC(C)C)C(=O)N[C@@H](CC(=O)O)C(=O)N[C@H](C(=O)N1CCC[C@H]1C(=O)N[C@H](C(=O)NCC(=O)N[C@@H](CC(C)C)C(=O)N[C@@H](CC(C)C)C(=O)N[C@@H](CCC(N)=O)C(=O)N[C@H](C(=O)N[C@@H](CC(C)C)C(=O)N[C@@H](CC(C)C)C(=O)N[C@@H](CCC(=O)O)C(=O)N[C@@H](CCC(N)=O)C(=O)N[C@@H](CCC(=O)O)C(=O)N[C@@H](CCCCN)C(=O)N[C@@H](CCC(N)=O)C(=O)N[C@@H](CCC(=O)O)C(=O)N[C@@H](CCCCN)C(=O)N[C@@H](CCC(=O)O)C(=O)N[C@@H](CCCCN)C(=O)N[C@@H](CCC(N)=O)C(=O)N[C@@H](CCC(N)=O)C(=O)N[C@@H](C)C(=O)N[C@@H](CCCCNC(=O)COCCOCCNC(=O)COCCOCCNC(=O)CC[C@H](NC(=O)CC[C@H](NC(=O)CCCCCCCCCCCCCCCCCCC(=O)O)C(=O)O)C(=O)O)C(=O)N[C@H](C(=O)N[C@@H](CC(N)=O)C(=O)N[C@@H](C)C(=O)N[C@@H](CCC(N)=O)C(=O)N[C@H](C(=O)N[C@@H](CC(C)C)C(=O)N[C@@H](C)C(=O)N[C@@H](CCC(N)=O)C(=O)N[C@H](C(N)=O)C(C)C)[C@@H](C)CC)[C@@H](C)O)[C@@H](C)CC)[C@@H](C)CC)C(C)C)C(C)C` [Example 2] (Ac-IVLSLDVPIGLLQILLEQEKQEKEKQQAK([AEEA-AEEA-γGlu-γGlu-C20 diacid])TNAQILAQV-NH2): the “deaths during the study” value in the data set with remnant kidney mice was “no deaths”. The CL/F in data set [1] (CL/F) was 113 mL/day/kg. In addition, the half-life in data set [1] (T1/2) is 34 h; in data set [3], 124 h. For the same molecule, the clearance in data set [2] (cynomolgus monkey, iv, 96.4 nmol/kg, male Cynomolgus monkeys, single 96.4 nmol/kg i.v., Mean) is 7.68 mL/day/kg; in data set [2] (cynomolgus monkey, iv, 96.4 nmol/kg, male Cynomolgus monkeys, single 96.4 nmol/kg i.v., individual animal), 6.72 mL/day/kg. The “C0 (estimated plasma concentration at time zero)” value in data set [2] (setting [5]) was 3.267 µM and 3.059 µM. In data set [2] (setting [5]), this molecule registered a CL of 8.64 mL/day/kg. In addition, the AUC(0-inf) in data set [2] (setting [6]) is 306 µM·h. Further, the C0 in data set [2] (setting [6]) was 3.16 µM.

As to `CC[C@H](C)[C@H](NC)C(=O)N[C@H](C(=O)N[C@@H](CC(C)C)C(=O)N[C@@H](CO)C(=O)N[C@@H](CC(C)C)C(=O)N[C@@H](CC(=O)O)C(=O)N[C@H](C(=O)N1CCC[C@H]1C(=O)N[C@H](C(=O)NCC(=O)N[C@@H](CC(C)C)C(=O)N[C@@H](CC(C)C)C(=O)N[C@@H](CCC(N)=O)C(=O)N[C@H](C(=O)N[C@@H](CC(C)C)C(=O)N[C@@H](CC(C)C)C(=O)N[C@@H](CCC(=O)O)C(=O)N[C@@H](CCC(N)=O)C(=O)N[C@@H](CCC(=O)O)C(=O)N[C@@H](CCCCN)C(=O)N[C@@H](CCC(N)=O)C(=O)N[C@@H](CCC(=O)O)C(=O)N[C@@H](CCCCN)C(=O)N[C@@H](CCC(=O)O)C(=O)N[C@@H](CCCCN)C(=O)N[C@@H](CCC(N)=O)C(=O)N[C@@H](CCC(N)=O)C(=O)N[C@@H](C)C(=O)N[C@@H](CCCCNC(=O)COCCOCCNC(=O)COCCOCCNC(=O)CC[C@H](NC(=O)CC[C@H](NC(=O)CCCCCCCCCCCCCCCCCCC(=O)O)C(=O)O)C(=O)O)C(=O)N[C@H](C(=O)N[C@@H](CC(N)=O)C(=O)N[C@@H](C)C(=O)N[C@@H](CCC(N)=O)C(=O)N[C@H](C(=O)N[C@@H](CC(C)C)C(=O)N[C@@H](C)C(=O)N[C@@H](CCC(N)=O)C(=O)N[C@H](C(N)=O)C(C)C)[C@@H](C)CC)[C@@H](C)O)[C@@H](C)CC)[C@@H](C)CC)C(C)C)C(C)C` [Example 4] (H-[NMeI]VLSLDVPIGLLQILLEQEKQEKEKQQAK([AEEA-AEEA-γGlu-γGlu-C20 diacid])TNAQILAQV-NH2), the “deaths over the course of the study” value is listed as 1 in data set [4] (Lisinopril plus 7.2 nmol/kg Example 4 group (N=8)), 3 in data set [4] (Lisinopril plus 24 nmol/kg Example 4 group (N=8)) and 3 in data set [4] (Lisinopril plus 72 nmol/kg Example 4 group (N=8)).
